Experiments:
Experiment in all cases: relative viability (nuclei count vs DMSO), 5 days (fraction); higher = more cells survive
[1] = compound: C1/C(=C\C2=CC=CS2)/C(=O)/C(=C/C3=CC=CS3)/C1 + Nc1ncn([C@H]2C[C@H](O)[C@@H](CO)O2)c(=O)n1 [Decitabine] (partner 2 µM)
In short: (§1)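 After 5 days of treatment, lung cancer cells in 1536-well plates were fixed and stained in a single step (final 0.05% Triton X-100, 1% formaldehyde, 1 ug/ml Hoechst) and their nuclei counted on 4× images. Treatment had been applied by pin tool the day after seeding as one drug alone or as a fixed anchor-drug dose with five library-drug doses (not always all listed) in √10 steps. Relative viability is the nuclei count of treated wells divided by that of vehicle wells, and values are medians of duplicate plates.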

[2] = compound: C1=CC(=CC=C1C2=CC(=C(S2)NC(=O)N)C(=O)N)F [TPCA-1] + Cc1nc(Nc2ncc(C(=O)Nc3c(C)cccc3Cl)s2)cc(N2CCN(CCO)CC2)n1 [Dasatinib] (partner 0.075 µM)
In short: as §1

[3] = compound: C[C@]12O[C@H](C[C@]1(O)CO)n1c3ccccc3c3c4c(c5c6ccccc6n2c5c31)CNC4=O [Lestaurtinib] + CC(=O)Nc1cccc(-n2c(=O)n(C3CC3)c(=O)c3c(Nc4ccc(I)cc4F)n(C)c(=O)c(C)c32)c1 [Trametinib] (partner 0.02 µM)
In short: as §1

[4] = compound: C[C@]12O[C@H](C[C@]1(O)CO)n1c3ccccc3c3c4c(c5c6ccccc6n2c5c31)CNC4=O [Lestaurtinib] + CC(C)C[C@H](NC(=O)[C@H](Cc1ccccc1)NC(=O)c1cnccn1)B(O)O [Bortezomib] (partner 0.002 µM)
In short: as §1

Row | Cell Line | relative viability ([1]; first compound 0.2 µM) | relative viability ([1]; first compound 0.6325 µM) | relative viability ([1]; first compound 2 µM) | relative viability ([1]; first compound 6.325 µM) | relative viability ([1]; first compound 20 µM) | relative viability ([2]; first compound 0.04 µM) | relative viability ([2]; first compound 0.1265 µM) | relative viability ([2]; first compound 0.4 µM) | relative viability ([2]; first compound 1.265 µM) | relative viability ([2]; first compound 4 µM) | relative viability ([3]; first compound 0.005 µM) | relative viability ([3]; first compound 0.01581 µM) | relative viability ([3]; first compound 0.05 µM) | relative viability ([3]; first compound 0.1581 µM) | relative viability ([3]; first compound 0.5 µM) | relative viability ([4]; first compound 0.005 µM) | relative viability ([4]; first compound 0.01581 µM) | relative viability ([4]; first compound 0.05 µM) | relative viability ([4]; first compound 0.1581 µM) | relative viability ([4]; first compound 0.5 µM)
1 | SK-LU-1 | 0.6 | 0.627 | 0.749 | 0.478 | 0.665 | 0.217 | 0.189 | 0.209 | 0.183 | 0.173 | 0.452 | 0.476 | 0.415 | 0.384 | 0.318 | 0.975 | 1.26 | 0.763 | 0.673 | 0.362
2 | NCI-H1299 |  |  |  |  |  |  |  |  |  |  |  |  |  |  |  | 1.04 | 0.982 | 1.03 | 0.843 | 0.751
3 | NCI-H2170 | 0.439 | 0.436 | 0.466 | 0.466 | 0.479 | 0.676 | 0.56 | 0.632 | 0.581 | 0.269 | 0.896 | 0.864 | 0.609 | 0.764 | 0.31 |  |  |  |  | 
4 | A549 | 0.281 | 0.295 | 0.237 | 0.384 | 0.229 |  |  |  |  |  |  |  |  |  |  |  |  |  |  | 
5 | Calu-6 |  |  |  |  |  |  |  |  |  |  |  |  |  |  |  | 1.07 | 0.875 | 0.744 | 0.562 | 0.184
6 | NCI-H1648 | 0.489 | 0.478 | 0.603 | 0.45 | 0.432 |  |  |  |  |  |  | 0.728 |  | 0.458 | 0.367 |  |  |  |  | 
7 | NCI-H1623 |  |  |  |  |  | 0.523 | 0.466 | 0.576 | 0.62 | 0.336 |  |  |  |  |  |  |  |  |  | 
8 | HCC-44 | 0.946 | 1 | 0.881 | 0.844 | 0.973 |  |  |  |  |  | 1.04 | 1.04 | 1.04 | 1.16 | 0.593 | 0.925 | 0.997 | 0.873 | 1.06 | 0.683
9 | NCI-H1944 | 0.423 | 0.427 | 0.439 |  | 0.392 | 0.251 | 0.207 | 0.217 | 0.198 | 0.151 | 0.408 | 0.464 | 0.386 | 0.345 | 0.292 |  |  |  |  | 
10 | NCI-H2342 | 0.819 | 0.73 | 0.713 | 0.752 | 0.653 | 0.323 | 0.323 | 0.276 | 0.241 | 0.294 | 0.836 | 0.817 | 0.841 | 0.849 | 0.971 |  |  |  |  | 
11 | NCI-H358 | 0.217 | 0.207 | 0.212 | 0.203 | 0.192 | 0.193 | 0.135 | 0.173 | 0.152 | 0.117 | 0.139 | 0.119 | 0.157 | 0.103 | 0.0891 |  |  |  |  | 
12 | ABC-1 | 1.22 | 1 | 1.2 | 0.87 | 0.972 | 0.485 | 0.493 | 0.614 | 0.495 | 0.381 |  |  |  |  |  | 0.352 | 0.332 | 0.292 | 0.308 | 0.2
13 | NCI-H1563 |  |  |  |  |  | 0.42 | 0.453 | 0.468 | 0.455 | 0.452 |  |  |  |  |  | 0.938 | 0.836 | 0.741 | 0.957 | 0.705
14 | NCI-H522 | 0.738 | 0.753 | 0.722 | 0.673 | 0.604 | 0.993 | 0.833 | 1.11 | 0.844 | 0.788 | 0.786 | 0.786 | 0.752 | 0.701 | 0.537 |  |  |  |  | 
15 | NCI-H1793 | 0.526 | 0.554 | 0.614 | 0.305 | 0.469 | 0.422 |  | 0.342 | 0.365 | 0.211 | 0.425 | 0.467 | 0.432 | 0.461 | 0.346 |  |  |  |  | 
16 | SW 900 | 0.404 | 0.434 | 0.375 | 0.42 | 0.438 | 0.768 | 0.526 | 0.685 | 0.307 | 0.583 | 0.959 | 0.86 | 0.691 | 1.16 | 0.876 |  |  |  |  | 
17 | CAL-12T |  |  |  |  |  | 0.361 | 0.486 | 0.571 | 0.304 | 0.154 | 0.364 | 0.337 | 0.314 | 0.288 | 0.23 | 0.806 | 1.27 | 0.888 | 0.794 | 0.618
18 | SK-MES-1 | 0.408 | 0.424 | 0.409 | 0.335 | 0.348 | 0.491 | 0.251 | 0.333 | 0.224 | 0.152 | 0.535 | 0.515 | 0.495 | 0.415 | 0.208 |  |  |  |  | 
19 | EBC-1 |  |  |  |  |  |  |  |  |  |  |  |  |  |  |  | 0.495 | 0.621 | 0.504 | 0.43 | 0.227
20 | LK-2 | 0.341 | 0.31 | 0.358 | 0.33 | 0.347 | 0.255 | 0.226 | 0.386 | 0.241 | 0.237 | 0.778 | 0.941 | 0.718 | 0.65 | 0.293 |  |  |  |  | 
21 | IA-LM |  |  |  |  |  |  |  |  |  |  |  |  |  |  |  | 1.08 | 1.18 | 1.08 | 0.943 | 0.339
22 | NCI-H1703 |  |  |  |  |  |  |  |  |  |  |  |  |  |  |  | 0.31 | 0.359 | 0.308 | 0.137 | 0.117
23 | NCI-H2228 |  |  |  |  |  | 0.669 | 0.491 | 0.521 | 0.386 | 0.301 | 0.589 | 0.575 | 0.452 | 0.322 | 0.156 | 0.994 | 0.805 | 0.629 | 0.476 | 0.185
24 | NCI-H1395 | 0.729 | 0.777 | 0.754 | 0.679 | 0.729 | 0.478 | 0.39 | 0.4 | 0.421 | 0.344 | 1.17 | 0.896 | 0.927 | 0.923 | 0.608 |  |  |  |  | 
